The supplement of paper PMC10307832

How the values were obtained:
Assay in all cases: relative viability (nuclei count vs DMSO), 5 days (fraction); higher = more cells survive
[1] = system: LU99A
Method in brief: (§1)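 Lung cancer cell lines in 1536-well plates got either a single drug or a fixed anchor-drug dose together with five library-drug doses (not always all listed) in √10 steps, by pin tool, on the day after seeding. Nuclei were counted after 5 days, and relative viability is the treated-to-vehicle ratio of nuclei counts. Values are medians of duplicate plates.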

[2] = system: NCI-H1651
Method in brief: as §1

[3] = system: NCI-H2085
Method in brief: as §1

[4] = system: NCI-H596
Method in brief: as §1

[5] = system: NCI-H1755
Method in brief: as §1

[6] = system: HCC-78
Method in brief: as §1

[7] = system: NCI-H3122
Method in brief: as §1

[8] = system: NCI-H322M
Method in brief: as §1

[9] = system: PC-3 [JPC-3]
Method in brief: as §1

[10] = system: COR-L23
Method in brief: as §1

[11] = system: NCI-H522
Method in brief: as §1

[12] = system: NCI-H460
Method in brief: as §1

[13] = system: H3255
Method in brief: as §1

[14] = system: 201T
Method in brief: as §1

[15] = system: NCI-H1650
Method in brief: as §1

[16] = system: NCI-H2087
Method in brief: as §1

[17] = system: NCI-H358
Method in brief: as §1

[18] = system: NCI-H650
Method in brief: as §1

[19] = system: SK-LU-1
Method in brief: as §1

[20] = system: HARA
Method in brief: as §1

[21] = system: NCI-H23
Method in brief: as §1

[22] = system: HCC-366
Method in brief: as §1

[23] = system: NCI-H1793
Method in brief: as §1

Compound: CCNC(=O)c1noc(-c2cc(C(C)C)c(O)cc2O)c1-c1ccc(CN2CCOCC2)cc1 [Luminespib] + Nc1ncn([C@H]2C[C@H](O)[C@@H](CO)O2)c(=O)n1 [Decitabine] (partner 2 µM)
- relative viability ([1]; first compound 0.002 µM): 0.953
- relative viability ([1]; first compound 0.006325 µM): 0.781
- relative viability ([1]; first compound 0.02 µM): 0.5
- relative viability ([1]; first compound 0.06325 µM): 0.855
- relative viability ([1]; first compound 0.2 µM): 0.879
- relative viability ([2]; first compound 0.002 µM): 0.612
- relative viability ([2]; first compound 0.006325 µM): 0.553
- relative viability ([2]; first compound 0.02 µM): 0.594
- relative viability ([2]; first compound 0.06325 µM): 0.469
- relative viability ([2]; first compound 0.2 µM): 0.226
- relative viability ([3]; first compound 0.002 µM): 0.547
- relative viability ([3]; first compound 0.006325 µM): 0.577
- relative viability ([3]; first compound 0.02 µM): 0.519
- relative viability ([3]; first compound 0.06325 µM): 0.486
- relative viability ([3]; first compound 0.2 µM): 0.346
- relative viability ([4]; first compound 0.002 µM): 1.07
- relative viability ([4]; first compound 0.006325 µM): 0.887
- relative viability ([4]; first compound 0.02 µM): 0.88
- relative viability ([4]; first compound 0.06325 µM): 0.991
- relative viability ([4]; first compound 0.2 µM): 1.01
- relative viability ([5]; first compound 0.002 µM): 0.673
- relative viability ([5]; first compound 0.006325 µM): 0.691
- relative viability ([5]; first compound 0.02 µM): 0.696
- relative viability ([5]; first compound 0.06325 µM): 0.719
- relative viability ([5]; first compound 0.2 µM): 0.649
- relative viability ([6]; first compound 0.002 µM): 0.644
- relative viability ([6]; first compound 0.006325 µM): 0.611
- relative viability ([6]; first compound 0.02 µM): 0.666
- relative viability ([6]; first compound 0.06325 µM): 0.725
- relative viability ([6]; first compound 0.2 µM): 0.448
- relative viability ([7]; first compound 0.002 µM): 0.474
- relative viability ([7]; first compound 0.006325 µM): 0.413
- relative viability ([7]; first compound 0.02 µM): 0.29
- relative viability ([7]; first compound 0.06325 µM): 0.418
- relative viability ([7]; first compound 0.2 µM): 0.403
- relative viability ([8]; first compound 0.002 µM): 0.681
- relative viability ([8]; first compound 0.006325 µM): 0.624
- relative viability ([8]; first compound 0.02 µM): 0.711
- relative viability ([8]; first compound 0.06325 µM): 0.509
- relative viability ([8]; first compound 0.2 µM): 0.499
- relative viability ([9]; first compound 0.002 µM): 0.888
- relative viability ([9]; first compound 0.006325 µM): 0.842
- relative viability ([9]; first compound 0.02 µM): 0.705
- relative viability ([9]; first compound 0.06325 µM): 0.397
- relative viability ([9]; first compound 0.2 µM): 0.506
- relative viability ([10]; first compound 0.002 µM): 0.502
- relative viability ([10]; first compound 0.006325 µM): 0.374
- relative viability ([10]; first compound 0.02 µM): 0.353
- relative viability ([10]; first compound 0.06325 µM): 0.0888
- relative viability ([10]; first compound 0.2 µM): 0.0903
- relative viability ([11]; first compound 0.002 µM): 0.626
- relative viability ([11]; first compound 0.006325 µM): 0.631
- relative viability ([11]; first compound 0.02 µM): 0.593
- relative viability ([11]; first compound 0.06325 µM): 0.6
- relative viability ([11]; first compound 0.2 µM): 0.451
- relative viability ([12]; first compound 0.002 µM): 0.473
- relative viability ([12]; first compound 0.006325 µM): 0.432
- relative viability ([12]; first compound 0.02 µM): 0.0674
- relative viability ([12]; first compound 0.06325 µM): 0.0264
- relative viability ([12]; first compound 0.2 µM): 0.0329
- relative viability ([13]; first compound 0.002 µM): 0.639
- relative viability ([13]; first compound 0.02 µM): 0.446
- relative viability ([13]; first compound 0.06325 µM): 0.425
- relative viability ([13]; first compound 0.2 µM): 0.222
- relative viability ([14]; first compound 0.002 µM): 0.832
- relative viability ([14]; first compound 0.006325 µM): 0.867
- relative viability ([14]; first compound 0.02 µM): 0.844
- relative viability ([14]; first compound 0.06325 µM): 0.811
- relative viability ([14]; first compound 0.2 µM): 0.827
- relative viability ([15]; first compound 0.002 µM): 0.463
- relative viability ([15]; first compound 0.006325 µM): 0.565
- relative viability ([15]; first compound 0.02 µM): 0.267
- relative viability ([15]; first compound 0.06325 µM): 0.137
- relative viability ([15]; first compound 0.2 µM): 0.133
- relative viability ([16]; first compound 0.002 µM): 0.25
- relative viability ([16]; first compound 0.006325 µM): 0.235
- relative viability ([16]; first compound 0.02 µM): 0.189
- relative viability ([16]; first compound 0.06325 µM): 0.145
- relative viability ([16]; first compound 0.2 µM): 0.101
- relative viability ([17]; first compound 0.002 µM): 0.217
- relative viability ([17]; first compound 0.006325 µM): 0.217
- relative viability ([17]; first compound 0.02 µM): 0.178
- relative viability ([17]; first compound 0.06325 µM): 0.0688
- relative viability ([17]; first compound 0.2 µM): 0.0584
- relative viability ([18]; first compound 0.002 µM): 0.282
- relative viability ([18]; first compound 0.006325 µM): 0.354
- relative viability ([18]; first compound 0.02 µM): 0.307
- relative viability ([18]; first compound 0.06325 µM): 0.252
- relative viability ([18]; first compound 0.2 µM): 0.0854
- relative viability ([19]; first compound 0.002 µM): 0.725
- relative viability ([19]; first compound 0.006325 µM): 0.462
- relative viability ([19]; first compound 0.02 µM): 0.547
- relative viability ([19]; first compound 0.06325 µM): 0.198
- relative viability ([19]; first compound 0.2 µM): 0.216
- relative viability ([20]; first compound 0.002 µM): 0.55
- relative viability ([20]; first compound 0.006325 µM): 0.569
- relative viability ([20]; first compound 0.02 µM): 0.532
- relative viability ([20]; first compound 0.06325 µM): 0.225
- relative viability ([20]; first compound 0.2 µM): 0.227
- relative viability ([21]; first compound 0.002 µM): 0.285
- relative viability ([21]; first compound 0.006325 µM): 0.346
- relative viability ([21]; first compound 0.02 µM): 0.265
- relative viability ([21]; first compound 0.06325 µM): 0.164
- relative viability ([21]; first compound 0.2 µM): 0.164
- relative viability ([22]; first compound 0.002 µM): 0.327
- relative viability ([22]; first compound 0.006325 µM): 0.359
- relative viability ([22]; first compound 0.02 µM): 0.31
- relative viability ([22]; first compound 0.06325 µM): 0.0527
- relative viability ([22]; first compound 0.2 µM): 0.038
- relative viability ([23]; first compound 0.002 µM): 0.499
- relative viability ([23]; first compound 0.006325 µM): 0.457
- relative viability ([23]; first compound 0.02 µM): 0.369
- relative viability ([23]; first compound 0.06325 µM): 0.151
- relative viability ([23]; first compound 0.2 µM): 0.185
